In PubChem BioAssay AID1259407 (Chemical Carcinogenesis Research Information System (CCRIS), 2018):
The source made the active and inactive calls. No rule for the calls is given here.

Tested on: CCRIS mutagenicity, Ames/micronucleus/aberration tests
Experiment: CCRIS mutagenicity studies
[1] = Test System: AMES SALMONELLA TYPHIMURIUM, Strain/Indicator: TA98, Metabolic Activation: NONE, Method: PREINCUBATION
[2] = Test System: AMES SALMONELLA TYPHIMURIUM, Strain/Indicator: TA100, Metabolic Activation: NONE, Method: PREINCUBATION
[3] = Test System: AMES SALMONELLA TYPHIMURIUM, Strain/Indicator: TA98, Metabolic Activation: NONE, Method: STANDARD PLATE
[4] = Test System: AMES SALMONELLA TYPHIMURIUM, Strain/Indicator: TA100, Metabolic Activation: NONE, Method: STANDARD PLATE
[5] = Test System: AMES SALMONELLA TYPHIMURIUM, Strain/Indicator: TA102, Metabolic Activation: NONE, Method: STANDARD PLATE

Nc1nc(-c2ccc([N+](=O)[O-])cc2)nc2c1ncn2-c1ccc([N+](=O)[O-])cc1
mutagenic call (Test System: AMES SALMONELLA TYPHIMURIUM, Strain/Indicator: TA98(1,8-DNP), Metabolic Activation: NONE, Method: PREINCUBATION): active; positive
mutagenic call (Test System: AMES SALMONELLA TYPHIMURIUM, Strain/Indicator: TA98(1,8-DNP), Metabolic Activation: RAT, LIVER, S-9, PCB, Method: PREINCUBATION): active; positive
mutagenic call (Test System: AMES SALMONELLA TYPHIMURIUM, Strain/Indicator: TA98(NR), Metabolic Activation: NONE, Method: PREINCUBATION): active; positive
mutagenic call (Test System: AMES SALMONELLA TYPHIMURIUM, Strain/Indicator: TA98(NR), Metabolic Activation: RAT, LIVER, S-9, PCB, Method: PREINCUBATION): active; positive
mutagenic call [1]: active; positive
mutagenic call (Test System: AMES SALMONELLA TYPHIMURIUM, Strain/Indicator: TA98, Metabolic Activation: RAT, LIVER, S-9, PCB, Method: PREINCUBATION): active; positive
mutagenic call (Test System: AMES SALMONELLA TYPHIMURIUM, Strain/Indicator: TA100(1,8-DNP), Metabolic Activation: NONE, Method: PREINCUBATION): active; positive
mutagenic call (Test System: AMES SALMONELLA TYPHIMURIUM, Strain/Indicator: TA100(1,8-DNP), Metabolic Activation: RAT, LIVER, S-9, PCB, Method: PREINCUBATION): inactive; negative
mutagenic call (Test System: AMES SALMONELLA TYPHIMURIUM, Strain/Indicator: TA100(NR), Metabolic Activation: NONE, Method: PREINCUBATION): active; positive
mutagenic call (Test System: AMES SALMONELLA TYPHIMURIUM, Strain/Indicator: TA100(NR), Metabolic Activation: RAT, LIVER, S-9, PCB, Method: PREINCUBATION): inactive; negative
mutagenic call [2]: active; positive
mutagenic call (Test System: AMES SALMONELLA TYPHIMURIUM, Strain/Indicator: TA100, Metabolic Activation: RAT, LIVER, S-9, PCB, Method: PREINCUBATION): active; positive
mutagenic call (Test System: AMES SALMONELLA TYPHIMURIUM, Strain/Indicator: YG1020, Metabolic Activation: NONE, Method: PREINCUBATION): active; positive
mutagenic call (Test System: AMES SALMONELLA TYPHIMURIUM, Strain/Indicator: YG1020, Metabolic Activation: RAT, LIVER, S-9, PCB, Method: PREINCUBATION): active; positive
mutagenic call (Test System: AMES SALMONELLA TYPHIMURIUM, Strain/Indicator: YG1021, Metabolic Activation: NONE, Method: PREINCUBATION): active; positive
mutagenic call (Test System: AMES SALMONELLA TYPHIMURIUM, Strain/Indicator: YG1021, Metabolic Activation: RAT, LIVER, S-9, PCB, Method: PREINCUBATION): active; positive
mutagenic call (Test System: AMES SALMONELLA TYPHIMURIUM, Strain/Indicator: YG1024, Metabolic Activation: NONE, Method: PREINCUBATION): active; positive
mutagenic call (Test System: AMES SALMONELLA TYPHIMURIUM, Strain/Indicator: YG1024, Metabolic Activation: RAT, LIVER, S-9, PCB, Method: PREINCUBATION): active; positive
mutagenic call (Test System: AMES SALMONELLA TYPHIMURIUM, Strain/Indicator: YG1025, Metabolic Activation: NONE, Method: PREINCUBATION): active; positive
mutagenic call (Test System: AMES SALMONELLA TYPHIMURIUM, Strain/Indicator: YG1025, Metabolic Activation: RAT, LIVER, S-9, PCB, Method: PREINCUBATION): active; positive
mutagenic call (Test System: AMES SALMONELLA TYPHIMURIUM, Strain/Indicator: YG1026, Metabolic Activation: NONE, Method: PREINCUBATION): active; positive
mutagenic call (Test System: AMES SALMONELLA TYPHIMURIUM, Strain/Indicator: YG1026, Metabolic Activation: RAT, LIVER, S-9, PCB, Method: PREINCUBATION): active; positive
mutagenic call (Test System: AMES SALMONELLA TYPHIMURIUM, Strain/Indicator: YG1029, Metabolic Activation: NONE, Method: PREINCUBATION): active; positive
mutagenic call (Test System: AMES SALMONELLA TYPHIMURIUM, Strain/Indicator: YG1029, Metabolic Activation: RAT, LIVER, S-9, PCB, Method: PREINCUBATION): active; positive

C=C(Cl)C=O
mutagenic call (Test System: AMES SALMONELLA TYPHIMURIUM, Strain/Indicator: TA100, Metabolic Activation: NONE, Method: LIQUID INCUBATION): active; positive
mutagenic call (Test System: AMES SALMONELLA TYPHIMURIUM, Strain/Indicator: TA100, Metabolic Activation: NONE, Method: PREINCUBATION, LIQUID INCUBATION): active; positive
mutagenic call (Test System: AMES SALMONELLA TYPHIMURIUM, Strain/Indicator: TA1535, Metabolic Activation: NONE, Method: LIQUID INCUBATION): active; positive
mutagenic call (Test System: AMES SALMONELLA TYPHIMURIUM, Strain/Indicator: TA1535, Metabolic Activation: NONE, Method: PREINCUBATION, LIQUID INCUBATION): active; positive

CN(Cc1cnc2nc(N)nc(N)c2n1)c1ccc(C(=O)N[C@@H](CCC(=O)O)C(=O)O)cc1
mutagenic call (End Point: IN VITRO MICRONUCLEUS, Test System: V79 CELLS, Metabolic Activation: NONE): inactive; negative
mutagenic call (End Point: IN VIVO CHROMOSOMAL ABERRATIONS, Test System: BONE MARROW, Species: MOUSE, Strain/Sex: SWISS/MALE, FEMALE, Route: INTRAPERITONEAL): active; positive (structural changes)
mutagenic call (End Point: IN VIVO MICRONUCLEUS, Test System: BONE MARROW, Species: MOUSE, Strain/Sex: SWISS/MALE, FEMALE, Route: INTRAPERITONEAL): active; positive
mutagenic call (End Point: In vitro micronucleus, Test System: Human lymphoblastoid TK6 cells, Metabolic Activation: None): active; positive (p<0.001)
mutagenic call [1]: inactive; negative
mutagenic call [3]: inactive; negative
mutagenic call (Test System: AMES SALMONELLA TYPHIMURIUM, Strain/Indicator: TA98, Metabolic Activation: S-9, Method: PREINCUBATION): inactive; negative
mutagenic call (Test System: AMES SALMONELLA TYPHIMURIUM, Strain/Indicator: TA98, Metabolic Activation: S-9, Method: STANDARD PLATE): inactive; negative
mutagenic call [2]: inactive; negative
mutagenic call [4]: inactive; negative
mutagenic call (Test System: AMES SALMONELLA TYPHIMURIUM, Strain/Indicator: TA100, Metabolic Activation: S-9, Method: PREINCUBATION): inactive; negative
mutagenic call (Test System: AMES SALMONELLA TYPHIMURIUM, Strain/Indicator: TA100, Metabolic Activation: S-9, Method: STANDARD PLATE): inactive; negative
mutagenic call [5]: inactive; negative
mutagenic call (Test System: AMES SALMONELLA TYPHIMURIUM, Strain/Indicator: TA1537, Metabolic Activation: NONE, Method: STANDARD PLATE): inactive; negative
mutagenic call (Test System: CHINESE HAMSTER V-79, Strain/Indicator: V-79 (HGPRT)/6-THIOGUANINE, Metabolic Activation: NONE): inactive; negative
mutagenic call (Test System: CHINESE HAMSTER V-79, Strain/Indicator: V-79/6-THIOGUANINE, Metabolic Activation: NONE, Method: SUSPENSION/PLATE): inactive; negative
mutagenic call (Test System: CHINESE HAMSTER V-79, Strain/Indicator: V-79/6-THIOGUANINE, Metabolic Activation: RAT, LIVER, HEPATOCYTES, Method: SUSPENSION/PLATE): inactive; negative
mutagenic call (Test System: E. COLI, Strain/Indicator: WP2 (HCR), Metabolic Activation: NONE, Method: STANDARD PLATE): inactive; negative
mutagenic call (Test System: E. COLI, Strain/Indicator: WP2 (HCR), Metabolic Activation: S-9, Method: STANDARD PLATE): inactive; negative
mutagenic call (Test System: E. COLI, Strain/Indicator: WP2, Metabolic Activation: NONE, Method: STANDARD PLATE): active; positive
mutagenic call (Test System: MOUSE LYMPHOMA, Strain/Indicator: L5178Y (TK+/TK-), Metabolic Activation: NONE, Method: MICROWELL): active; positive
mutagenic call (Test System: MOUSE LYMPHOMA, Strain/Indicator: L5178Y (TK+/TK-), Metabolic Activation: NONE, Method: SUSPENSION/PLATE): active; positive
mutagenic call (Test System: MOUSE LYMPHOMA, Strain/Indicator: L5178Y (TK+/TK-), Metabolic Activation: RAT, LIVER, S-9, AROCLOR 1254, Method: SUSPENSION/PLATE): active; positive
mutagenic call (Test System: MOUSE LYMPHOMA, Strain/Indicator: L5178Y (TK+/TK-), Metabolic Activation: S-9, Method: MICROWELL): active; positive

CCCCOC(N)=O
mutagenic call (Test System: E. COLI, Strain/Indicator: WP2 UVRA, Metabolic Activation: NONE, Method: FLUCTUATION TEST): inactive; negative

CN1CCN(c2c(F)cc3c(=O)c(C(=O)O)cn4c3c2OCN4C)CC1
mutagenic call [5]: active; positive
mutagenic call (Test System: CHINESE HAMSTER V-79, Strain/Indicator: V-79 (HPRT)/6-THIOGUANINE, Metabolic Activation: RAT, LIVER, S-9, AROCLOR 1254): active; positive

C[C@@]12CCc3occc3[C@H]1CC[C@@]13C[C@@H](CC[C@H]12)[C@@](O)(CO)C3
mutagenic call (Test System: AMES SALMONELLA TYPHIMURIUM, Strain/Indicator: TM677, Metabolic Activation: NONE, Method: PREINCUBATION): inactive; negative
mutagenic call (Test System: AMES SALMONELLA TYPHIMURIUM, Strain/Indicator: TM677, Metabolic Activation: RAT, LIVER, S-9, AROCLOR 1254, Method: PREINCUBATION): inactive; negative

c1ccc2c(c1)CC[C@@H]1CCC[C@@H]3O[C@]213
mutagenic call [3]: inactive; negative
mutagenic call [4]: inactive; negative
